Measured values as given in ChEMBL document CHEMBL1143025, “Synthesis of carbamate derivatives of iejimalides. Retention of normal antiproliferative activity and localization of binding in cancer cells” (2007).
Activity calls are given as the source filed them. The calls are words filed in the database; no cut-off is given here.

Tests used:
[1] = tested on: SK-BR-3; test: Antiproliferative activity against human SKBr3 cells after 72 hrs by MTT assay; format: functional; settings: SK-BR-3, 72 h
[2] = tested on: PC-3; test: Antiproliferative activity against human PC3 cells after 72 hrs by MTT assay; format: functional; settings: PC-3, 72 h
[3] = Antiproliferative activity against human MDA231 cells after 72 hrs by MTT assay; format: functional; settings: MDA-MB-231, 72 h
[4] = tested on: MCF7; test: Antiproliferative activity against human MCF7 cells after 72 hrs by MTT assay; format: functional; settings: MCF7, 72 h
[5] = tested on: PC-3; test: Disruption of microtubules in human PC3 cells at 100 nM after 12 hrs; format: functional, cell-based

GI50 [1] [nM]	GI50 [2] [nM]	GI50 [4] [nM]	Structure (SMILES)	GI50 [3] [nM]	Activity [5]
20	15.3	7.5	CO[C@@H]1/C=C(C)/C=C/[C@@H](C)/C=C/C(=O)O[C@H](/C(C)=C/C=C(\C)CNC(=O)[C@H](COC(=O)Nc2ccccc2)NC=O)[C@@H](C)/C=C/C=C/[C@@H](OC)CC/C=C(C)\C=C\C1	12	–
10.5	9.9	8.3	CO[C@@H]1/C=C(C)/C=C/[C@@H](C)/C=C(\C)C(=O)O[C@H](/C(C)=C/C=C(\C)CNC(=O)[C@H](COC(=O)Nc2ccccc2)NC=O)[C@@H](C)/C=C/C=C/[C@@H](OC)CC/C=C(C)\C=C\C1	8.8	–
–	–	–	CC(=O)O[C@H]1C(=O)[C@@]2(C)[C@H]([C@H](OC(=O)c3ccccc3)[C@]3(O)C[C@H](OC(=O)[C@H](O)[C@@H](NC(=O)c4ccccc4)c4ccccc4)C(C)=C1C3(C)C)[C@]1(OC(C)=O)CO[C@@H]1C[C@@H]2O	–	Active
